Assay results reported in article PMC11822212, “High-throughput screening identifies Aurora kinase B as a critical therapeutic target for Merkel cell carcinoma” (Nature Communications, 2025).
Where “and” joins values, the source holds several entries; their conditions need not be identical. Identical values can stand only once. Counter-ions that a name gives are not always drawn. Like-named read-outs stand apart in the source and are kept apart here.

Columns and labels:
Assay in all cases: qHTS cell viability (CellTiter-Glo, 72 h; primary and follow-up small molecule screen)
Format in all cases: cell-based, human
MCC13 cells (VN-MCC) = tested on: MCC13 cells (VN-MCC)
MCC26 cells (VN-MCC) = tested on: MCC26 cells (VN-MCC)
UISO cells (VN-MCC) = tested on: UISO cells (VN-MCC)
WAGA cells (VP-MCC) = tested on: WAGA cells (VP-MCC)
MKL-1 cells (VP-MCC) = tested on: MKL-1 cells (VP-MCC)
MKL-2 cells (VP-MCC) = tested on: MKL-2 cells (VP-MCC)
[1] = follow-up screen, MCC13, replicate 1
[2] = follow-up screen, MCC13, replicate 2
[3] = follow-up screen, MCC13, replicate 3
[4] = follow-up screen, MCC26, replicate 1
[5] = follow-up screen, MCC26, replicate 2
[6] = follow-up screen, MCC26, replicate 3
[7] = follow-up screen, UISO, replicate 1
[8] = follow-up screen, UISO, replicate 2
[9] = follow-up screen, UISO, replicate 3
[10] = follow-up screen, WAGA, replicate 1
[11] = follow-up screen, WAGA, replicate 2
[12] = follow-up screen, WAGA, replicate 3
[13] = follow-up screen, MKL-1, replicate 1
[14] = follow-up screen, MKL-1, replicate 2
[15] = follow-up screen, MKL-1, replicate 3
[16] = follow-up screen, MKL-2, replicate 1
[17] = follow-up screen, MKL-2, replicate 2
[18] = follow-up screen, MKL-2, replicate 3

SMILES | Area under the dose-response curve (AUC) MCC13 Replicate 1 (MCC13 cells (VN-MCC); [1]) | Area under the dose-response curve (AUC) MCC13 Replicate 2 (MCC13 cells (VN-MCC); [2]) | Area under the dose-response curve (AUC) MCC13 Replicate 3 (MCC13 cells (VN-MCC); [3]) | Area under the dose-response curve (AUC) MCC26 Replicate 1 (MCC26 cells (VN-MCC); [4]) | Area under the dose-response curve (AUC) MCC26 Replicate 2 (MCC26 cells (VN-MCC); [5]) | Area under the dose-response curve (AUC) MCC26 Replicate 3 (MCC26 cells (VN-MCC); [6]) | Area under the dose-response curve (AUC) UISO Replicate 1 (UISO cells (VN-MCC); [7]) | Area under the dose-response curve (AUC) UISO Replicate 2 (UISO cells (VN-MCC); [8]) | Area under the dose-response curve (AUC) UISO Replicate 3 (UISO cells (VN-MCC); [9]) | Area under the dose-response curve (AUC) WAGA Replicate 1 (WAGA cells (VP-MCC); [10]) | Area under the dose-response curve (AUC) WAGA Replicate 2 (WAGA cells (VP-MCC); [11]) | Area under the dose-response curve (AUC) WAGA Replicate 3 (WAGA cells (VP-MCC); [12]) | Area under the dose-response curve (AUC) MKL-1 Replicate 1 (MKL-1 cells (VP-MCC); [13]) | Area under the dose-response curve (AUC) MKL-1 Replicate 2 (MKL-1 cells (VP-MCC); [14]) | Area under the dose-response curve (AUC) MKL-1 Replicate 3 (MKL-1 cells (VP-MCC); [15]) | Area under the dose-response curve (AUC) MKL-2 Replicate 1 (MKL-2 cells (VP-MCC); [16]) | Area under the dose-response curve (AUC) MKL-2 Replicate 2 (MKL-2 cells (VP-MCC); [17]) | Area under the dose-response curve (AUC) MKL-2 Replicate 3 (MKL-2 cells (VP-MCC); [18]) | other results
Cc1nc2ccc(-n3ncc(C(=O)c4cc5ccccc5[nH]4)c3N)cc2[nH]1 [CH5183284 (Debio-1347)] | – | – | – | – | – | – | – | – | – | – | – | – | – | – | – | – | – | – | Area under the dose-response curve (AUC) (MCC13 cells (VN-MCC)): 509.3 and 491.7 and 491.1; Area under the dose-response curve (AUC) (MCC26 cells (VN-MCC)): 405.6 and 395.0 and 403.7; Area under the dose-response curve (AUC) (UISO cells (VN-MCC)): 433.7 and 424.4 and 430.0; Area under the dose-response curve (AUC) (WAGA cells (VP-MCC)): 493.1 and 498.3 and 457.6; Area under the dose-response curve (AUC) (MKL-1 cells (VP-MCC)): 508.7 and 488.2 and 500.7; Area under the dose-response curve (AUC) (MKL-2 cells (VP-MCC)): 485.9 and 459.2 and 468.2
CN(C)c1ccc(C(=C2C=CC(=[N+](C)C)C=C2)c2ccc(N(C)C)cc2)cc1.[Cl-] [Methylrosaniline chloride] | – | – | – | – | – | – | – | – | – | – | – | – | – | – | – | – | – | – | Area under the dose-response curve (AUC) MCC13 Replicate 1 (MCC13 cells (VN-MCC)): 337.3; Area under the dose-response curve (AUC) MCC13 Replicate 2 (MCC13 cells (VN-MCC)): 353.3; Area under the dose-response curve (AUC) MCC13 Replicate 3 (MCC13 cells (VN-MCC)): 322.2; Area under the dose-response curve (AUC) MCC26 Replicate 1 (MCC26 cells (VN-MCC)): 379.4; Area under the dose-response curve (AUC) MCC26 Replicate 2 (MCC26 cells (VN-MCC)): 341.7; Area under the dose-response curve (AUC) MCC26 Replicate 3 (MCC26 cells (VN-MCC)): 374.7; Area under the dose-response curve (AUC) UISO Replicate 1 (UISO cells (VN-MCC)): 320.8; Area under the dose-response curve (AUC) UISO Replicate 2 (UISO cells (VN-MCC)): 340.7; Area under the dose-response curve (AUC) UISO Replicate 3 (UISO cells (VN-MCC)): 296.1; Area under the dose-response curve (AUC) WAGA Replicate 1 (WAGA cells (VP-MCC)): 370.0; Area under the dose-response curve (AUC) WAGA Replicate 2 (WAGA cells (VP-MCC)): 348.5; Area under the dose-response curve (AUC) WAGA Replicate 3 (WAGA cells (VP-MCC)): 356.4; Area under the dose-response curve (AUC) MKL-1 Replicate 1 (MKL-1 cells (VP-MCC)): 316.1; Area under the dose-response curve (AUC) MKL-1 Replicate 2 (MKL-1 cells (VP-MCC)): 287.7; Area under the dose-response curve (AUC) MKL-1 Replicate 3 (MKL-1 cells (VP-MCC)): 301.6; Area under the dose-response curve (AUC) MKL-2 Replicate 1 (MKL-2 cells (VP-MCC)): 279.9; Area under the dose-response curve (AUC) MKL-2 Replicate 2 (MKL-2 cells (VP-MCC)): 290.8; Area under the dose-response curve (AUC) MKL-2 Replicate 3 (MKL-2 cells (VP-MCC)): 309.2
CCc1c2c(nc3ccc(O)cc13)-c1cc3c(c(=O)n1C2)COC(=O)[C@]3(O)CC [SN-38] | 218.6 | 222.5 | 261.5 | 201.3 | 194.5 | 189.1 | 127.3 | 148.1 | 144.2 | 143.8 | 150.1 | 140.2 | 135.7 | 150.7 | 162.0 | 131.4 | 119.7 | 221.9 | –
CC(C)=CCC[C@]1(C)C=Cc2c(O)c3c(c(CC=C(C)C)c2O1)O[C@]12C(=C[C@@H]4C[C@H]1C(C)(C)O[C@@]2(C/C=C(/C)C(=O)O)C4=O)C3=O [GAMBOGIC ACID] | 387.5 | 370.7 | 367.8 | 329.0 | 325.1 | 343.3 | 286.6 | 299.4 | 341.5 | 304.1 | 265.2 | 369.1 | 308.8 | 334.5 | 328.9 | 279.3 | 285.4 | 317.0 | –
COc1ccc(C(=O)CC(=O)c2ccc(C(C)(C)C)cc2)cc1 [Avobenzone] | 464.5 | 464.7 | 487.0 | 418.2 | 424.5 | 411.6 | 448.1 | 466.1 | 426.5 | 495.5 | 492.2 | 489.4 | 452.4 | 457.3 | 467.2 | 491.6 | 475.6 | 463.7 | –
COc1ccc2cc3[n+](cc2c1OC)CCc1cc2c(cc1-3)OCO2 [Berberine] | 398.2 | 416.5 | 443.1 | 384.2 | 304.3 | 382.1 | 307.5 | 333.0 | 307.0 | 314.6 | 371.3 | 307.0 | 311.8 | 310.8 | 306.9 | 282.0 | 271.5 | 295.9 | –
C/C=C(/C)C(=O)O[C@H]1C(C)=C2[C@H]([C@@H]1OC(=O)CCCCCCC)[C@@](C)(OC(C)=O)C[C@H](OC(=O)CCC)[C@@]1(O)[C@H]2OC(=O)[C@@]1(C)O [Thapsigargin] | 289.0 | 272.1 | 274.4 | 278.4 | 281.8 | 214.4 | 207.4 | 234.5 | 207.7 | 336.3 | 303.0 | 289.2 | 384.9 | 385.8 | 395.7 | 322.6 | 308.5 | 284.8 | –
CCC(=O)NC[C@H](Cc1ccc(OCCc2nc(-c3ccccc3)oc2C)cc1)N/C(C)=C\C(=O)c1ccc(C(F)(F)F)cc1 [GW-6471] | – | – | – | – | – | – | – | – | – | – | – | – | – | – | – | – | – | – | Area under the dose-response curve (AUC) MCC13 Replicate 1 (MCC13 cells (VN-MCC)): 508.4; Area under the dose-response curve (AUC) MCC13 Replicate 2 (MCC13 cells (VN-MCC)): 489.8; Area under the dose-response curve (AUC) MCC13 Replicate 3 (MCC13 cells (VN-MCC)): 459.0; Area under the dose-response curve (AUC) MCC26 Replicate 1 (MCC26 cells (VN-MCC)): 466.5; Area under the dose-response curve (AUC) MCC26 Replicate 2 (MCC26 cells (VN-MCC)): 438.7; Area under the dose-response curve (AUC) MCC26 Replicate 3 (MCC26 cells (VN-MCC)): 475.7; Area under the dose-response curve (AUC) UISO Replicate 1 (UISO cells (VN-MCC)): 430.2; Area under the dose-response curve (AUC) UISO Replicate 2 (UISO cells (VN-MCC)): 426.3; Area under the dose-response curve (AUC) UISO Replicate 3 (UISO cells (VN-MCC)): 403.1; Area under the dose-response curve (AUC) WAGA Replicate 1 (WAGA cells (VP-MCC)): 517.9; Area under the dose-response curve (AUC) WAGA Replicate 2 (WAGA cells (VP-MCC)): 512.0; Area under the dose-response curve (AUC) WAGA Replicate 3 (WAGA cells (VP-MCC)): 484.1; Area under the dose-response curve (AUC) MKL-1 Replicate 1 (MKL-1 cells (VP-MCC)): 475.3; Area under the dose-response curve (AUC) MKL-1 Replicate 2 (MKL-1 cells (VP-MCC)): 443.7; Area under the dose-response curve (AUC) MKL-1 Replicate 3 (MKL-1 cells (VP-MCC)): 500.6; Area under the dose-response curve (AUC) MKL-2 Replicate 1 (MKL-2 cells (VP-MCC)): 432.8; Area under the dose-response curve (AUC) MKL-2 Replicate 2 (MKL-2 cells (VP-MCC)): 489.1; Area under the dose-response curve (AUC) MKL-2 Replicate 3 (MKL-2 cells (VP-MCC)): 475.3
CCN(CCO)CCCC(C)Nc1ccnc2cc(Cl)ccc12 (stereo not drawn) [Hydroxychloroquine sulfate] | 495.6 | 487.6 | 467.0 | 423.8 | 423.8 | 468.3 | 504.6 | 448.6 | 420.1 | 540.2 | 519.3 | 458.7 | 541.8 | 486.3 | 499.9 | 454.2 | 416.6 | 490.5 | –
